Assay results reported in US4026888A, “Certain derivatives of particular 3-thiolated cephalosporins” (priority 1976, dated 1977).
In brackets after ≈: the same amount, converted by molar mass. Like-named read-outs stand apart in the source and are kept apart here.

Assays:
[1] = Paper chromatography of rat urine for antibiotically active metabolites; assay type: in vivo; conditions: IM; rat urine 0-2 and 2-4 hours
Description: Paper chromatograms were run on rat urine collected between 0 and 2 and between 2 and 4 hours following IM administration of BL-S1055 and 640, for the detection of antibiotically active metabolites using descending chromatography with system No. 9 (butyl acetate:n-butanol:glacial acetic acid:H2 O= 80:15:40:24).

[2] = Urinary recovery after IM administration to rats; assay type: in vivo; conditions: rat, urine, read-out: Urinary Recovery, Percentage of Administered Dose Recovered; for dose excreted at 6 h: 0-6 hr
Description: Urinary Recovery After IM
Administration of 50 and 10 mg./kg. to Rats
The compounds were prepared in 0.01% phosphate buffer. BL-S640 was used as
Urinary Recovery after IM
Administration of 50 mg./kg. to Rats
(§1) The compounds were prepared in 0.01% phosphate buffer.

Ent. cloacae A9659 = experiment: Antibiotic activity in nutrient broth (MIC); assay type: cell-based; conditions: Enterobacter cloacae, A9659, inoculum 10^-4; derivatives adjusted for BL-S640 content; read-out: MIC
Source text: (§2) Antibiotic Activity In Nutrient Broth
(§3) ** Dilution of overnight broth culture.
(§4) Antibiotic Spectrum Nutrient Broth
(§5) Antibiotic Spectrum in Nutrient Broth

Ps. aeruginosa A9843A = experiment: Antibiotic activity in nutrient broth (MIC); assay type: cell-based; conditions: Pseudomonas aeruginosa
Source text: as §2, §3, §4, §5

Ent. cloacae A9657 = experiment: Antibiotic activity in nutrient broth (MIC); assay type: cell-based; conditions: Enterobacter cloacae, A9657, inoculum 10^-4; derivatives adjusted for BL-S640 content; read-out: MIC
Source text: as §2, §3, §4, §5

Pr. mirabilis A9900 = experiment: Antibiotic activity in nutrient broth (MIC); assay type: cell-based; conditions: Proteus mirabilis, inoculum 10^-4, derivatives adjusted for BL-S640 content
Source text: as §2, §3, §4, §5

Pr. morganii A15153 = experiment: Antibiotic activity in nutrient broth (MIC); assay type: cell-based; conditions: Morganella morganii, A15153, inoculum 10^-4; derivatives adjusted for BL-S640 content; read-out: MIC
Source text: as §2, §3, §4, §5

E. coli A9675 = experiment: Antibiotic activity in nutrient broth (MIC); assay type: cell-based; conditions: Escherichia coli, A9675, inoculum 10^-4; derivatives adjusted for BL-S640 content; read-out: MIC
Source text: as §2, §3, §4, §5

K. pneumoniae A9977 = experiment: Antibiotic activity in nutrient broth (MIC); assay type: cell-based; conditions: Klebsiella pneumoniae, inoculum 10^-4, derivatives adjusted for BL-S640 content, read-out: MIC
Source text: as §2, §3, §4, §5

S. aureus BX1633 A9606 = experiment: Antibiotic activity in nutrient broth (MIC); assay type: cell-based; conditions: Staphylococcus aureus, derivatives adjusted for BL-S640 content, read-out: MIC
Source text: as §2, §3, §4, §5

S. aureus Smith A9537 = experiment: Antibiotic activity in nutrient broth (MIC); assay type: cell-based; conditions: derivatives adjusted for BL-S640 content
Source text: as §2, §3, §4, §5

P. mirabilis A9900 [3] = experiment: IM PD50 in mice; assay type: in vivo; conditions: Proteus mirabilis
Source text: Comparative IM PD50 Values of
(§6) BL-S640 Derivatives in Mice

P. mirabilis A9900 [4] = experiment: Oral PD50 in mice; assay type: in vivo; conditions: Proteus mirabilis, A9900, po, 3.5 h, oral; mice treated at 1 and 3.5 hours post-challenge; read-out: PD50
Str. pyogenes A9604 = experiment: Antibiotic activity in nutrient broth (MIC); assay type: cell-based; conditions: Streptococcus pyogenes, A9604, inoculum 10^-3; 45% AAB + 5% serum + 50% broth; derivatives adjusted for BL-S640 content; read-out: MIC
Source text: as §2
(§7) * 45% AAB+ 5% serum+ 50% broth listed above.
as §3, §4
(§8) * 45% AAB + 5% serum + 50% broth
as §5
(§9) *45% AAB + 5% serum + 50% broth listed above.

Str. pneumoniae A9585 = experiment: Antibiotic activity in nutrient broth (MIC); assay type: cell-based; conditions: Streptococcus pneumoniae, A9585, inoculum 10^-3 dilution of overnight broth culture; 45% AAB + 5% serum + 50% broth; derivatives adjusted for BL-S640 content
Source text: as §2, §7, §3, §4, §8, §5, §9

[5] = Mouse blood levels after oral administration; assay type: in vivo; conditions: for Blood Level: listed as Compound of Ex. 1, 100 mg/kg; for concentration at 0.5 h / concentration at 1 h / concentration at 2 h / concentration at 3.5 h: mouse, blood, po, 100 mg/kg
Description: Mouse Blood Levels After Oral
Administration Of 100 mg./kg. Body Weight
The compounds were prepared in
Tween - carboxymethylcellulose
and 8 mice were used for each
Mouse Blood Levels After PO
Administration of 100 mg./kg. Body Weight
The compounds were prepared in Tween-CMC. BL-S640
The compounds were prepared in Tween-CMC. Values are the average of two

[6] = Mouse blood levels after intramuscular administration; assay type: in vivo; conditions: for concentration at 0.25 h / concentration at 0.5 h / concentration at 1 h / concentration at 1.5 h: mouse, blood, im, 10 mg/kg, IM 10 mg./kg., 0.01% phosphate buffer
Description: Mouse Blood Levels After Intramuscular Administration
of 10 mg./kg. Body Weight
The compounds were dissolved in 0.01% phosphate buffer.
Mouse Blood Levels After IM
Administration of 10 mg./kg. Body Weight
The compounds were prepared in 0.01% phosphate
as §1

P. mirabilis A9707 = experiment: Oral PD50 in mice; assay type: in vivo; conditions: Proteus mirabilis, mice treated at 1 and 3.5 hours post-challenge
Description: Comparative Oral PD50 Values of
as §6
*Mice were treated at 1 and 3.5 hours post-challenge.

[7] = Example 2, 16 or 32 mice, read-out: Blood Levels
[8] = Table III, read-out: Mouse Blood Levels

## O=C(O)C1=C(CSc2cnn[nH]2)CS[C@@H]2[C@H](N3C(=O)[C@@H](c4ccc(O)cc4)NC3c3ccc(S(=O)(=O)O)o3)C(=O)N12 (stereo partly drawn) [BL-S1027]
[1]
  Hydrolysis to the parent compound (BL-S640): complete hydrolysis
[2]; 10 mg/kg, IM 10 mg./kg.
  dose excreted at 6 h: 30.1%
[2]; 10 mg/kg, IM 10 mg./kg., 0-24 hr
  dose excreted at 24 h: 31.8%
[2]; 10 mg/kg, IM 10 mg./kg., 6-24 hr
  dose excreted at 24 h: 1.7%
[2]; 50 mg/kg, IM 50 mg./kg.
  dose excreted at 6 h: 39.6%
[2]; 50 mg/kg, IM 50 mg./kg., 0-24 hr
  dose excreted at 24 h: 42.2%
[2]; 50 mg/kg, IM 50 mg./kg., 6-24 hr
  dose excreted at 24 h: 2.6%
Ent. cloacae A9659
  MIC: 32 µg/mL (≈ 51.6 µM)
Ps. aeruginosa A9843A
  MIC: > 125 µg/mL
Ent. cloacae A9657
  MIC: 1 µg/mL (≈ 1.61 µM)
Pr. mirabilis A9900
  MIC: 0.5 µg/mL (≈ 0.806 µM)
Pr. morganii A15153
  MIC: 32 µg/mL (≈ 51.6 µM)
E. coli A9675
  MIC: 4 µg/mL (≈ 6.44 µM)
K. pneumoniae A9977
  MIC: 0.5 µg/mL (≈ 0.806 µM)
S. aureus BX1633 A9606; BX1633A9606, inoculum 10^-2
  MIC: 4 µg/mL (≈ 6.44 µM)
S. aureus BX1633 A9606; BX1633A9606, inoculum 10^-3
  MIC: 0.5 µg/mL (≈ 0.806 µM)
S. aureus Smith A9537; Staphylococcus aureus, SMITHA9537, inoculum 10^-4, + 50% serum, read-out: MIC
  MIC: 2 µg/mL
S. aureus Smith A9537; Staphylococcus aureus, SMITHA9537, inoculum 10^-4, nutrient broth, read-out: MIC
  MIC: 0.27 µg/mL (≈ 0.435 µM)
S. aureus Smith A9537; inoculum 10^-4, nutrient broth
  MIC: 0.25 µg/mL (≈ 0.403 µM)
P. mirabilis A9900 [3]
  ED50: 1.6 mg/kg
P. mirabilis A9900 [4]
  ED50: 6.3 mg/kg
Str. pyogenes A9604
  MIC: 0.03 µg/mL
Str. pneumoniae A9585
  MIC: 0.03 µg/mL
1 mg./ml. in pH 7 phosphate buffer, 0 time
  free BL-S640 by liquid chromatography: 85%
0.2 and 1.0 mg./ml. in water
  Form in solution by paper strip and liquid chromatography: exists as free BL-S640
[5]; Table II, oral 100 mg./kg., 0.5 hr, Tween-carboxymethylcellulose, 8 mice, 30 min
  Blood Level: 54600 ng/mL
[5]; Table II, oral 100 mg./kg., 1 hr, Tween-carboxymethylcellulose, 8 mice, 60 min
  Blood Level: 53500 ng/mL
[5]; Table II, oral 100 mg./kg., 2 hr, Tween-carboxymethylcellulose, 8 mice, 120 min
  Blood Level: 27600 ng/mL
[5]; Table II, oral 100 mg./kg., 3.5 hr, Tween-carboxymethylcellulose, 8 mice, 210 min
  Blood Level: 8200 ng/mL
[5]; Example 2, PO 100 mg./kg., 0.5 hr, Tween-CMC, 16 or 32 mice, read-out: Blood Levels
  concentration at 0.5 h: 49800 ng/mL
[5]; Example 2, PO 100 mg./kg., 1 hr, Tween-CMC, 16 or 32 mice, read-out: Blood Levels
  concentration at 1 h: 45100 ng/mL
[5]; Example 2, PO 100 mg./kg., 2 hr, Tween-CMC, 16 or 32 mice, read-out: Blood Levels
  concentration at 2 h: 24000 ng/mL
[5]; Example 2, PO 100 mg./kg., 3.5 hr, Tween-CMC, 16 or 32 mice, read-out: Blood Levels
  concentration at 3.5 h: 9300 ng/mL
[5]; Table II, oral 100 mg./kg., 0.5 hr, Tween-carboxymethylcellulose, 8 mice, read-out: Blood Level
  concentration at 0.5 h: 45000 ng/mL
[5]; Table II, oral 100 mg./kg., 1 hr, Tween-carboxymethylcellulose, 8 mice, read-out: Blood Level
  concentration at 1 h: 36600 ng/mL
[5]; Table II, oral 100 mg./kg., 2 hr, Tween-carboxymethylcellulose, 8 mice, read-out: Blood Level
  concentration at 2 h: 20400 ng/mL
[5]; Table II, oral 100 mg./kg., 3.5 hr, Tween-carboxymethylcellulose, 8 mice, read-out: Blood Level
  concentration at 3.5 h: 10400 ng/mL
[5]; oral, in words
  Mouse blood levels, oral, compared with BL-S640 propylene glycol adduct: approximately equal
[6]; intramuscular, in words
  Mouse blood levels, intramuscular, compared with BL-S640 propylene glycol adduct: approximately equal
[6]; [7]
  concentration at 0.25 h: 15400 ng/mL
  concentration at 0.5 h: 15100 ng/mL
  concentration at 1 h: 11800 ng/mL
  concentration at 1.5 h: 8200 ng/mL
[6]; [8]
  concentration at 0.25 h: 16100 ng/mL
  concentration at 0.5 h: 14800 ng/mL
  concentration at 1 h: 11900 ng/mL
  concentration at 1.5 h: 8000 ng/mL
P. mirabilis A9707
  ED50: 1.8 mg/kg
